This passage reports IC50 and EC50 results from ChEMBL document CHEMBL6103568, “An overview of small-molecule agents for the treatment of psoriasis” (Bioorg Med Chem, 2025).

For one assay, the target named is Phosphodiesterase 4 (Homo sapiens, UniProt P27815+Q08499+Q07343+Q08493). Put plainly: Inhibition of PDE4 (unknown origin). The format is protein assay.
Assay [1] concerns the target Tyrosine-protein kinase JAK2 (Homo sapiens, UniProt O60674). As to the kind of experiment: Inhibition of JAK2 (unknown origin).
Assay [2] has as its target Sphingosine 1-phosphate receptor 1 (Homo sapiens, UniProt P21453). Put plainly: Agonist activity at S1P1 (unknown origin) by HTRF assay. The format is functional. (Time-resolved FRET reads energy transfer from a long-lived donor to a nearby acceptor.)
For assay [3], the target named is 3',5'-cyclic-AMP phosphodiesterase 4B (Homo sapiens, UniProt Q07343). Put plainly: Inhibition of PDE4B (unknown origin).
The target of a further assay is Cytochrome P450 3A5 (Homo sapiens, UniProt P20815). As to the kind of experiment: Inhibition of CYP3A5 (unknown origin). It is filed as ADME.
Sequence of Cytochrome P450 3A5 (P20815 whole entry): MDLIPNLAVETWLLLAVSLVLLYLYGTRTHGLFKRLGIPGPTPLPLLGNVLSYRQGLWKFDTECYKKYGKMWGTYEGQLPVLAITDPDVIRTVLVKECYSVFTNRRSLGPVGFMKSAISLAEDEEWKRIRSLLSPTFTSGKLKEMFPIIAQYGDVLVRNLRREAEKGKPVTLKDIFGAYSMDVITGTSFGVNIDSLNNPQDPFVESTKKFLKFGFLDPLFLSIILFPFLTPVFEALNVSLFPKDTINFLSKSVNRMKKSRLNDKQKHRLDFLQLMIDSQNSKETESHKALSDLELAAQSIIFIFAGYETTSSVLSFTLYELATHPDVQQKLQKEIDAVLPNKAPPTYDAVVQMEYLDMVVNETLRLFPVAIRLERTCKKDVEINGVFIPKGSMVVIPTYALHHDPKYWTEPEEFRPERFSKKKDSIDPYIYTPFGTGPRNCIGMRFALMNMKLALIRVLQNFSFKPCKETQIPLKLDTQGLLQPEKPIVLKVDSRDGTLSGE

Sequence of Sphingosine 1-phosphate receptor 1 (P21453 whole entry): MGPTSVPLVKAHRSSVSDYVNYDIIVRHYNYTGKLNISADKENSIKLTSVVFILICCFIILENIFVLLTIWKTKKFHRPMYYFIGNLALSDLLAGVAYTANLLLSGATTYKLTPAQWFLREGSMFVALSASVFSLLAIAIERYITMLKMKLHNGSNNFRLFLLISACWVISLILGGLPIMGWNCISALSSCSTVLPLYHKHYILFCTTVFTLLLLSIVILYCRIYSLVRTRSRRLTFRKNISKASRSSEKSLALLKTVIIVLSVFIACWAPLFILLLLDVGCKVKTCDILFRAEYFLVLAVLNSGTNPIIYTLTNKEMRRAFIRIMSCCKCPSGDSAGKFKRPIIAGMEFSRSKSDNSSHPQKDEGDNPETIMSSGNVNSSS
Sequence of 3',5'-cyclic-AMP phosphodiesterase 4B (Q07343 whole entry): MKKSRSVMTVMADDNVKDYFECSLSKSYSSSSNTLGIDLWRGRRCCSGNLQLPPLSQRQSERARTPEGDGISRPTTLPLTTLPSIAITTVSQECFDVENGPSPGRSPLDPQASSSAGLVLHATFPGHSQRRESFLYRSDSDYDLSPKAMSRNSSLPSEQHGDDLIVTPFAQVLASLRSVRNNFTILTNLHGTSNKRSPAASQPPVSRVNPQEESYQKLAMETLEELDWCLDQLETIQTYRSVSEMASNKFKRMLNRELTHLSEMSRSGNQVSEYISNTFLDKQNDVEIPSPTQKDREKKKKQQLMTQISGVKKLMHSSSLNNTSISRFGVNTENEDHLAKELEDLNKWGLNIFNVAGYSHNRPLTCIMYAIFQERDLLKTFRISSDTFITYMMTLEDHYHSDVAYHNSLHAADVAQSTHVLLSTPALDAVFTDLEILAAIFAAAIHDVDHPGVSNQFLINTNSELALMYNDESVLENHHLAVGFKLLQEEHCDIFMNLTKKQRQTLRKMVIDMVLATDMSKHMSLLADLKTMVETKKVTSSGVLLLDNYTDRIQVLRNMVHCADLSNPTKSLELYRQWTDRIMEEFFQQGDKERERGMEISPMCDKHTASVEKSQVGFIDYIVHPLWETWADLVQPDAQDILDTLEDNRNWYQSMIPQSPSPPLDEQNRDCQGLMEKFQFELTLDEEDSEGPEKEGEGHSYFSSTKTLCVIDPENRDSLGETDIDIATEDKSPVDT
Sequence of Tyrosine-protein kinase JAK2 (O60674 whole entry): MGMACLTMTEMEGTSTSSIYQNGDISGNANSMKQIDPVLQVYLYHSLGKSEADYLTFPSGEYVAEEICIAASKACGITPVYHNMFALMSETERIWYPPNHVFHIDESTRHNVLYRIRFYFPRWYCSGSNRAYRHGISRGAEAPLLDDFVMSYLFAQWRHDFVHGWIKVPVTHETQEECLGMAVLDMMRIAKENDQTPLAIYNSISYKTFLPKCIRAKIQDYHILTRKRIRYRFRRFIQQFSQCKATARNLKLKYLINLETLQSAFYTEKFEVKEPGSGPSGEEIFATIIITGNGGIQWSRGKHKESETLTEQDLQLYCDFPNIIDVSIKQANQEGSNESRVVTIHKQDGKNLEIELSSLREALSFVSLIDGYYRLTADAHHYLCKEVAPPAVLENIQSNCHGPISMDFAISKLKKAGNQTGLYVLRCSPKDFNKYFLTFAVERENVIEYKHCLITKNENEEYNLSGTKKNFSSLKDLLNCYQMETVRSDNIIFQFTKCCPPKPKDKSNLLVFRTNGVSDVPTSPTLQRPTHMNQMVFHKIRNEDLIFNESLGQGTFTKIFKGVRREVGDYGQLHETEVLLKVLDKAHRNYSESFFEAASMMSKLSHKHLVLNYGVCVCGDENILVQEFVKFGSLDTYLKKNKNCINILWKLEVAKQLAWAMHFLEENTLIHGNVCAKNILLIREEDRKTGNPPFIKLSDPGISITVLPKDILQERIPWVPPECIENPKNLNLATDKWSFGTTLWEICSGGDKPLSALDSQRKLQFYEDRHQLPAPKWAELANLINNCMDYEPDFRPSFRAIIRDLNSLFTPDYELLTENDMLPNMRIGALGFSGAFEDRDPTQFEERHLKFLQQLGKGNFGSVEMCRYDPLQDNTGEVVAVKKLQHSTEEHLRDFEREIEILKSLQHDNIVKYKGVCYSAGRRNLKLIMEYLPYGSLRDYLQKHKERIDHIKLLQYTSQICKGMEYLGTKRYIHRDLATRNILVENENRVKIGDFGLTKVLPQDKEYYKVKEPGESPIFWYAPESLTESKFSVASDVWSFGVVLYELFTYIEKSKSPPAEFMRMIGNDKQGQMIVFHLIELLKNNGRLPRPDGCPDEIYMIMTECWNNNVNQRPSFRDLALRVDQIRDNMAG

The term IC50 denotes the concentration at which inhibition is half-maximal. Read a high IC50 as a need for much substance. Turning to `CCOc1cc([C@@H](CS(C)(=O)=O)N2C(=O)c3csc(NC(C)=O)c3C2=O)ccc1OC`, the concentration for half-maximal inhibition (IC50) on Phosphodiesterase 4 was found to be 0.114 µM.

In assay [1], `CCS(=O)(=O)N1CC(CC#N)C1n1cc(-c2ncnc3[nH]ccc23)cn1` (stereo not given) registered a half-inhibitory concentration (IC50) of 0.0057 µM.

The term EC50 denotes the concentration needed to bring the measured effect to its halfway point. Lower therefore signals higher potency in that assay. Compound `CCC/N=C1/S/C(=C\c2ccc(OC[C@H](O)CO)c(Cl)c2)C(=O)N1c1ccccc1C` gave an EC50 in assay [2] of 0.006 µM.

In assay [3], `COc1ccc([C@H](N2C(=O)c3cccc(NC(C)=O)c3C2=O)S(C)(=O)=O)cc1OC` came in with an IC50 of 0.074 µM. This lies in the double-digit nanomolar range.

The compound `O=C(O)CC1CCN(C(=O)c2ccc(Cl)c(Cn3ccc4cc(C(F)(F)F)cc(Cl)c43)c2Cl)CC1` [CEDIROGANT] came in with an IC50 against Cytochrome P450 3A5 of 0.206 µM.
